Results reported in ChEMBL document CHEMBL4507281, “Data for DCP probe BI-4394” (2021).

Columns and labels:
[1] = biological target: Mitogen-activated protein kinase 1 (Homo sapiens) (UniProt P28482); conditions: Compound concentration 100.0 nM
[2] = biological target: Proto-oncogene tyrosine-protein kinase receptor Ret (Homo sapiens) (UniProt P07949); conditions: Compound concentration 100.0 nM
[3] = biological target: Leucine-rich repeat serine/threonine-protein kinase 2 (Homo sapiens) (UniProt Q5S007); conditions: Compound concentration 100.0 nM
Sequence of Leucine-rich repeat serine/threonine-protein kinase 2 (Homo sapiens) (Q5S007 whole entry): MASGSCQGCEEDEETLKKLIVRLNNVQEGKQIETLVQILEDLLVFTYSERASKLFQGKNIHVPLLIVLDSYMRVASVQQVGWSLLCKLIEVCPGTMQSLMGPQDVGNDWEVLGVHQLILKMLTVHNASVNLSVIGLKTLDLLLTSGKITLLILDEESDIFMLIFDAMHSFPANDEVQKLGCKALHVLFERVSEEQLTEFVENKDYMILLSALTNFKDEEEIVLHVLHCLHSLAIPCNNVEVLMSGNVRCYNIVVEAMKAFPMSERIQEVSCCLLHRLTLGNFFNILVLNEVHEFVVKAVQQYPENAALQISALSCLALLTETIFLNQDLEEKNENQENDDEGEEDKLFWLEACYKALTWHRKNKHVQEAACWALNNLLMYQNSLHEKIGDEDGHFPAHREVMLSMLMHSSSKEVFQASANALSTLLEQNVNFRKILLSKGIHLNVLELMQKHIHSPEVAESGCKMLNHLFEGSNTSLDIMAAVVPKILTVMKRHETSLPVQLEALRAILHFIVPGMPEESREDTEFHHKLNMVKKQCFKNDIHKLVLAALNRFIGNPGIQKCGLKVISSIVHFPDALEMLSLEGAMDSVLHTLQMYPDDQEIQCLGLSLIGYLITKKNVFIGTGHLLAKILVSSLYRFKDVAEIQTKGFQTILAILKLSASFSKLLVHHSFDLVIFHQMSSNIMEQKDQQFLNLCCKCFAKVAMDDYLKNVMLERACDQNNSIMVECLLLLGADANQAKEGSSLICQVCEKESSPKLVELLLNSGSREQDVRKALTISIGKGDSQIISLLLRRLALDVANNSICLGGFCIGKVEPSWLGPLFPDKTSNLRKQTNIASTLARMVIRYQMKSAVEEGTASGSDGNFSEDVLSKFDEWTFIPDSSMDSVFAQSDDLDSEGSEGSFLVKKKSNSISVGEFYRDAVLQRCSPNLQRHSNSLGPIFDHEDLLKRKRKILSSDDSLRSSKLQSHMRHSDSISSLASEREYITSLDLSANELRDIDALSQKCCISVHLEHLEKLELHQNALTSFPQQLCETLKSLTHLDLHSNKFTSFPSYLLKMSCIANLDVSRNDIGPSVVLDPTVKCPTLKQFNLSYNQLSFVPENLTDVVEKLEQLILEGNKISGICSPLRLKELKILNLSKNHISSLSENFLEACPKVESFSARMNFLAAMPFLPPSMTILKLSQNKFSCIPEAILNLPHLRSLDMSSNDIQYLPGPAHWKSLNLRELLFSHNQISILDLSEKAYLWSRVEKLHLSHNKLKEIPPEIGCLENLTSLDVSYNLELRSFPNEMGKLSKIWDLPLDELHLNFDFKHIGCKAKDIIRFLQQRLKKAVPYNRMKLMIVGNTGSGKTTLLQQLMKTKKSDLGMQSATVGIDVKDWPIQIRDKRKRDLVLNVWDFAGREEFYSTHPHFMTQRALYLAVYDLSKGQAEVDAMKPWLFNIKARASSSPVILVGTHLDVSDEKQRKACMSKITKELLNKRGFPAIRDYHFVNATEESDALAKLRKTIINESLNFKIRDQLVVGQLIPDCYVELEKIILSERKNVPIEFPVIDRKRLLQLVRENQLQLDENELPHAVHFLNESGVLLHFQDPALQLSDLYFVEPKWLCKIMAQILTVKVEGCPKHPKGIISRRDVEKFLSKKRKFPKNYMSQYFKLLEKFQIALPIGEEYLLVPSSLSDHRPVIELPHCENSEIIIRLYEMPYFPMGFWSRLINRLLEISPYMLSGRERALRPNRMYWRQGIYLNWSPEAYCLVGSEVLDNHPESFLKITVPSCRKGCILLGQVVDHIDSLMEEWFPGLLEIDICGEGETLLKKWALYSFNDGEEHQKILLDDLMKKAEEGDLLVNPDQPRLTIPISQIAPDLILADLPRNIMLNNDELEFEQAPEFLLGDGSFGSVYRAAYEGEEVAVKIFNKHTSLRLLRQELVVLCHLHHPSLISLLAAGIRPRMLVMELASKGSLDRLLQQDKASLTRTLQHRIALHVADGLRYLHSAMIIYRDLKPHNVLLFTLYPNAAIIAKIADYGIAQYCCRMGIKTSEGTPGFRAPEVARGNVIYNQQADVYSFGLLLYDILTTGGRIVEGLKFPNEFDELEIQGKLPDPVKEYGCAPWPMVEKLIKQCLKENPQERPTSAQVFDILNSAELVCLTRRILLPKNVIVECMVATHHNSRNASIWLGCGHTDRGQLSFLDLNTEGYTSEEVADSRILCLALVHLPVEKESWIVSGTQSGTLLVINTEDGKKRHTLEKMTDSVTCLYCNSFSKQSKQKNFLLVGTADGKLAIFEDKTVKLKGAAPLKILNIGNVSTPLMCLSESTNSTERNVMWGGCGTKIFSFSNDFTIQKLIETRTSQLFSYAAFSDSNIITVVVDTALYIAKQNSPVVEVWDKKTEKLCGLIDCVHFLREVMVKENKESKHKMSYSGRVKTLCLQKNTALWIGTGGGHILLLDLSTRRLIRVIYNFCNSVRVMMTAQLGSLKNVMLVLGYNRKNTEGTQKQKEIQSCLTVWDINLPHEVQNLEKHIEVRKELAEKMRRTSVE

[4] = biological target: Ribosomal protein S6 kinase alpha-4 (Homo sapiens) (UniProt O75676); conditions: Compound concentration 100.0 nM
[5] = biological target: Dual serine/threonine and tyrosine protein kinase (Homo sapiens) (UniProt Q6XUX3); conditions: Compound concentration 100.0 nM
[6] = biological target: Mitogen-activated protein kinase 13 (Homo sapiens) (UniProt O15264); conditions: Compound concentration 100.0 nM
Sequence of Mitogen-activated protein kinase 13 (Homo sapiens) (O15264 whole entry, canonical isoform): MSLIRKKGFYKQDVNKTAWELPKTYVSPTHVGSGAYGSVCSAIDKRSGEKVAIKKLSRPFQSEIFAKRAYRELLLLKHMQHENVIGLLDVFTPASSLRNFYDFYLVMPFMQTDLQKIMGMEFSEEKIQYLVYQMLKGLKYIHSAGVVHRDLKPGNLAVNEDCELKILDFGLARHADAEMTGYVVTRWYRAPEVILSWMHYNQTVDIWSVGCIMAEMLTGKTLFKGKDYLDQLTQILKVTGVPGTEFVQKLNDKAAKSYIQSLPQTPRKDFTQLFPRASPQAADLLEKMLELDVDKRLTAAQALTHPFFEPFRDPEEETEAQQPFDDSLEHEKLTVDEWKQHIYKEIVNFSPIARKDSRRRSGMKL

[7] = biological target: Phosphatidylinositol 4,5-bisphosphate 3-kinase catalytic subunit beta isoform (Homo sapiens) (UniProt P42338); conditions: Compound concentration 100.0 nM
[8] = biological target: Serine/threonine-protein kinase pim-2 (Homo sapiens) (UniProt Q9P1W9); conditions: Compound concentration 100.0 nM
[9] = biological target: Bone morphogenetic protein receptor type-2 (Homo sapiens) (UniProt Q13873); conditions: Compound concentration 100.0 nM
[10] = biological target: Dual specificity mitogen-activated protein kinase kinase 3 (Homo sapiens) (UniProt P46734); conditions: Compound concentration 100.0 nM
[11] = biological target: Epidermal growth factor receptor (Homo sapiens) (UniProt P00533); conditions: Compound concentration 100.0 nM
[12] = test system: Mast/stem cell growth factor receptor Kit (Homo sapiens), P10721 [V559D]; conditions: Compound concentration 100.0 nM
[13] = biological target: Ephrin type-B receptor 2 (Homo sapiens) (UniProt P29323); conditions: Compound concentration 100.0 nM
Sequence of Ephrin type-B receptor 2 (Homo sapiens) (P29323 whole entry): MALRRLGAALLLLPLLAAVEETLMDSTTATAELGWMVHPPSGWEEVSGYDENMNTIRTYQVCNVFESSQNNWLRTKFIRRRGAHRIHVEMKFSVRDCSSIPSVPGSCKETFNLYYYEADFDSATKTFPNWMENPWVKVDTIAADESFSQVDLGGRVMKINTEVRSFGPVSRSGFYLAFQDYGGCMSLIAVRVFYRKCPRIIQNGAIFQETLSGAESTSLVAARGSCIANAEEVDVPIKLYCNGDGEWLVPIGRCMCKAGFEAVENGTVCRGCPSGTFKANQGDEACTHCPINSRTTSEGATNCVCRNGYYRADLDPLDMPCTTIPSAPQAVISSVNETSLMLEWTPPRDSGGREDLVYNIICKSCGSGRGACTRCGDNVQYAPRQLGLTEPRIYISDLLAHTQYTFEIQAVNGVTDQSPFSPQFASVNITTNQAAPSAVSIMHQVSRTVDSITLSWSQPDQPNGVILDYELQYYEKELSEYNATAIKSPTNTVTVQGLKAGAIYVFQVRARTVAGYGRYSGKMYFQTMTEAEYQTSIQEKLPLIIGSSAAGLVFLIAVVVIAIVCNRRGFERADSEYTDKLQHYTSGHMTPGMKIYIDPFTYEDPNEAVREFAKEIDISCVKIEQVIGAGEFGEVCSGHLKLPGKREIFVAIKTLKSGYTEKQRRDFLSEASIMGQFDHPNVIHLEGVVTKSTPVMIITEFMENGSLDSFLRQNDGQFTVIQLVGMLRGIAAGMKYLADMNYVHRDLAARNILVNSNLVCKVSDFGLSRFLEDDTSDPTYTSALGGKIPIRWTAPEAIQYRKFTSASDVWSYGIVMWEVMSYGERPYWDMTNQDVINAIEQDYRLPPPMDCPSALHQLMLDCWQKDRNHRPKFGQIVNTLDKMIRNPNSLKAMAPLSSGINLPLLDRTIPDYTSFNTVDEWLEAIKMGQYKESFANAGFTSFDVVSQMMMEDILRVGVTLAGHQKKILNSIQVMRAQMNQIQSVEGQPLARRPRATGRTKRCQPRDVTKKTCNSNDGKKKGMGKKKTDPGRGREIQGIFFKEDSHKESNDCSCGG

[14] = biological target: Mitogen-activated protein kinase kinase kinase 19 (Homo sapiens) (UniProt Q56UN5); conditions: Compound concentration 100.0 nM
[15] = biological target: T1, Inhibitor of nuclear factor kappa-B kinase subunit beta (Homo sapiens) (UniProt O14920); conditions: Compound concentration 100.0 nM
T1 sequence (whole entry): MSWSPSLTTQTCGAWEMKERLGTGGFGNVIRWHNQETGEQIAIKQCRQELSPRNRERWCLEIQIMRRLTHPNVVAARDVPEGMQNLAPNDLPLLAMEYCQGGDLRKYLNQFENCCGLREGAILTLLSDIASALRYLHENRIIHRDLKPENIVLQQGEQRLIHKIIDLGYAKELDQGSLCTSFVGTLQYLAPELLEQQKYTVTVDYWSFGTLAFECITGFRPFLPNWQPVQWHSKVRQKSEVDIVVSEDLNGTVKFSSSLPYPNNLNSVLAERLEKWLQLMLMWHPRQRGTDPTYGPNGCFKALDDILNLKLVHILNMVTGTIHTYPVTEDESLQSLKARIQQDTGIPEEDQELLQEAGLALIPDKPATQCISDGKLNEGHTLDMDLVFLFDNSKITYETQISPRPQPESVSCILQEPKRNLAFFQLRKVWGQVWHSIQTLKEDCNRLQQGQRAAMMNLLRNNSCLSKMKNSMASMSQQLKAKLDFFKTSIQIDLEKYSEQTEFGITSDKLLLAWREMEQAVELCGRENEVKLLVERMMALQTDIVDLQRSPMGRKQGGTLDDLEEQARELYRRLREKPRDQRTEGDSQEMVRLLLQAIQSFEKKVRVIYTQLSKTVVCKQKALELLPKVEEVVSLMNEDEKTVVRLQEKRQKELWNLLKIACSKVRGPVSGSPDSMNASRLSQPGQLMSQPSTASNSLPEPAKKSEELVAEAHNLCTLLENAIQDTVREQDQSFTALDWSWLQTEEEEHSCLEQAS

[16] = biological target: Ephrin type-B receptor 3 (Homo sapiens) (UniProt P54753); conditions: Compound concentration 100.0 nM
[17] = biological target: Alpha-1B adrenergic receptor (Homo sapiens) (UniProt P35368); conditions: Compound concentration 10.0 uM
[18] = biological target: Rho-associated protein kinase 2 (Homo sapiens) (UniProt O75116); conditions: Compound concentration 100.0 nM
[19] = biological target: Mitogen-activated protein kinase 9 (Homo sapiens) (UniProt P45984); conditions: Compound concentration 100.0 nM
[20] = biological target: Cyclin-dependent kinase-like 1 (Homo sapiens) (UniProt Q00532); conditions: Compound concentration 100.0 nM
Sequence of Cyclin-dependent kinase-like 1 (Homo sapiens) (Q00532 whole entry): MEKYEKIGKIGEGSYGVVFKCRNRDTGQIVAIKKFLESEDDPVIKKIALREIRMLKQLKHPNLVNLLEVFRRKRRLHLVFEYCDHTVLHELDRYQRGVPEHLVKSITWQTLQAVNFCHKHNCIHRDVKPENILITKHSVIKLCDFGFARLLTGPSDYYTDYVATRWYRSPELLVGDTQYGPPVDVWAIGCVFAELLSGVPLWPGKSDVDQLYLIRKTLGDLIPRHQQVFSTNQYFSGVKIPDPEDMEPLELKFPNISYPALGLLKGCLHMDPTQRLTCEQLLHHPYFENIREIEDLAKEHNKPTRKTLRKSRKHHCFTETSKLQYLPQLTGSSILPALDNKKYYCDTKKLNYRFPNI

[21] = biological target: Tyrosine-protein kinase HCK (Homo sapiens) (UniProt P08631); conditions: Compound concentration 100.0 nM
[22] = biological target: Peripheral plasma membrane protein CASK (Homo sapiens) (UniProt O14936); conditions: Compound concentration 100.0 nM
[23] = biological target: Serine/threonine-protein kinase 26 (Homo sapiens) (UniProt Q9P289); conditions: Compound concentration 100.0 nM
[24] = biological target: Serine/threonine-protein kinase VRK2 (Homo sapiens) (UniProt Q86Y07); conditions: Compound concentration 100.0 nM
[25] = test system: Receptor-type tyrosine-protein kinase FLT3 (Homo sapiens), P36888 [UNDEFINED MUTATION]; conditions: Compound concentration 100.0 nM
[26] = biological target: Mitogen-activated protein kinase kinase kinase kinase 2 (Homo sapiens) (UniProt Q12851); conditions: Compound concentration 100.0 nM
[27] = biological target: Serine/threonine-protein kinase MRCK alpha (Homo sapiens) (UniProt Q5VT25); conditions: Compound concentration 100.0 nM
[28] = biological target: Homeodomain-interacting protein kinase 4 (Homo sapiens) (UniProt Q8NE63); conditions: Compound concentration 100.0 nM
[29] = biological target: Vascular endothelial growth factor receptor 2 (Homo sapiens) (UniProt P35968); conditions: Compound concentration 100.0 nM
[30] = test system: Phosphatidylinositol 4,5-bisphosphate 3-kinase catalytic subunit alpha isoform (Homo sapiens), P42336 [E545A]; conditions: Compound concentration 100.0 nM
[31] = biological target: STE20/SPS1-related proline-alanine-rich protein kinase (Homo sapiens) (UniProt Q9UEW8); conditions: Compound concentration 100.0 nM
[32] = biological target: Fibroblast growth factor receptor 4 (Homo sapiens) (UniProt P22455); conditions: Compound concentration 100.0 nM
Sequence of Fibroblast growth factor receptor 4 (Homo sapiens) (P22455 22-802 limits assumed): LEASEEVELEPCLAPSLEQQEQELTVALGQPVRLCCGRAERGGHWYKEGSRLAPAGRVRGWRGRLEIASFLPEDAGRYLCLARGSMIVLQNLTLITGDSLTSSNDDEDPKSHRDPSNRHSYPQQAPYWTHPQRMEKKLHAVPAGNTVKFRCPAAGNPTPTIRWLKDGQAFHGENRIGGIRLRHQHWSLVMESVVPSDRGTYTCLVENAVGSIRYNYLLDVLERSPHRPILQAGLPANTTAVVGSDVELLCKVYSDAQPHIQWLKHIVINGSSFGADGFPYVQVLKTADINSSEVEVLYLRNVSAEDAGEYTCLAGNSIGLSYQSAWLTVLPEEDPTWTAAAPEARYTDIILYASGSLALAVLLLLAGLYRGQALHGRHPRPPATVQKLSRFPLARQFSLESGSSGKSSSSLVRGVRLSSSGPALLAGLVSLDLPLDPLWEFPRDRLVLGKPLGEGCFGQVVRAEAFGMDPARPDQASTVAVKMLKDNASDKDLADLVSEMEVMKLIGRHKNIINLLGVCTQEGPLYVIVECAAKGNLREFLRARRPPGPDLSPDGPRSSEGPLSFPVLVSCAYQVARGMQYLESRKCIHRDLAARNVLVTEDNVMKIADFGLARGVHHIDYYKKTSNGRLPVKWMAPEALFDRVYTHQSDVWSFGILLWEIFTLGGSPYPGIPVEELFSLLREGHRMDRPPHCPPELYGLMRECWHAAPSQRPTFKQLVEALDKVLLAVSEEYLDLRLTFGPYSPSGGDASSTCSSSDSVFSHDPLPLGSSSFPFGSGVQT

[33] = biological target: MAP kinase-interacting serine/threonine-protein kinase 2 (Homo sapiens) (UniProt Q9HBH9); conditions: Compound concentration 100.0 nM
[34] = test system: Phosphatidylinositol 4,5-bisphosphate 3-kinase catalytic subunit alpha isoform (Homo sapiens), P42336 [M1043I]; conditions: Compound concentration 100.0 nM

CCOC(=O)c1cc2cc(-c3cc(C(=O)NCc4ccc(C(=O)O)cc4)nn3C)ccc2[nH]1 [BI 4394]
inactive: residual activity [1] 99% | residual activity [2] 87% | residual activity [3] 81% | residual activity [4] 88% | residual activity [5] 69% | residual activity [6] 100% | residual activity [7] 88% | residual activity [8] 96% | residual activity [9] 82% | residual activity [10] 100% | residual activity [11] 92% | residual activity [12] 100% | residual activity [13] 100% | residual activity [14] 75% | residual activity [15] 100% | residual activity [16] 90% | inhibition [17] -1.29% | residual activity [18] 85% | residual activity [19] 96% | residual activity [20] 77% | residual activity [21] 100% | residual activity [22] 71% | residual activity [23] 81% | residual activity [24] 98% | residual activity [25] 72% | residual activity [26] 84% | residual activity [27] 100% | residual activity [28] 87% | residual activity [29] 81% | residual activity [30] 84% | residual activity [31] 85% | residual activity [32] 68% | residual activity [33] 92% | residual activity [34] 100%

Cn1nc(C(=O)NCc2ccc(C(=O)O)cc2)cc1-c1ccc2[nH]ccc2c1 [BI 4395]
inactive: residual activity [1] 94% | residual activity [2] 83% | residual activity [3] 75% | residual activity [4] 73% | residual activity [5] 96% | residual activity [6] 91% | residual activity [7] 82% | residual activity [8] 81% | residual activity [9] 83% | residual activity [10] 93% | residual activity [11] 100% | residual activity [12] 90% | residual activity [13] 100% | residual activity [14] 85% | residual activity [15] 93% | residual activity [16] 100% | inhibition [17] -6.1% | residual activity [18] 82% | residual activity [19] 60% | residual activity [20] 70% | residual activity [21] 81% | residual activity [22] 69% | residual activity [23] 95% | residual activity [24] 91% | residual activity [25] 66% | residual activity [26] 85% | residual activity [27] 79% | residual activity [28] 100% | residual activity [29] 85% | residual activity [30] 77% | residual activity [31] 90% | residual activity [32] 100% | residual activity [33] 96% | residual activity [34] 85%
